Data from PubChem BioAssay AID1963970 (Molecular Pharmacology Branch, DTP, NCI, 2024).

Tested on: 931267-113-T-J1-PDC multicell spheroid viability
Assay: Anticancer human tumor 931267-113-T-J1-PDC patient-derived colon adenocarcinoma cell line growth inhibition [PI3K]
Conditions: for IC50: curve of first compound; for viability, T/C: stronger effect = lower value
Procedure, shortened: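 Combination activity was assessed by viability in multicellular tumor spheroids carrying HUVEC and MSC components. Agents were tested with PI3K inhibitors from a Cmax-based top dose (or 10 microM) downward in half-log increments.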

[1] = second compound 0.00316 µM, first compound 0.0316 µM
[2] = second compound 0.00316 µM, first compound 0.1 µM
[3] = second compound 0.00316 µM, first compound 0.316 µM
[4] = second compound 0.00316 µM, first compound 1 µM
[5] = second compound 0.00316 µM, first compound 3.16 µM
[6] = second compound 0.00316 µM, first compound 10 µM
[7] = second compound 0.01 µM, first compound 0.0316 µM
[8] = second compound 0.01 µM, first compound 0.1 µM
[9] = second compound 0.01 µM, first compound 0.316 µM
[10] = second compound 0.01 µM, first compound 1 µM
[11] = second compound 0.01 µM, first compound 3.16 µM
[12] = second compound 0.01 µM, first compound 10 µM
[13] = second compound 0.0316 µM, first compound 0.0316 µM
[14] = second compound 0.0316 µM, first compound 0.1 µM
[15] = second compound 0.0316 µM, first compound 0.316 µM
[16] = second compound 0.0316 µM, first compound 1 µM
[17] = second compound 0.0316 µM, first compound 3.16 µM
[18] = second compound 0.0316 µM, first compound 10 µM
[19] = second compound 0.1 µM, first compound 0.0316 µM
[20] = second compound 0.1 µM, first compound 0.1 µM
[21] = second compound 0.1 µM, first compound 0.316 µM
[22] = second compound 0.1 µM, first compound 1 µM
[23] = second compound 0.1 µM, first compound 3.16 µM
[24] = second compound 0.1 µM, first compound 10 µM
[25] = second compound 0.316 µM, first compound 0.0316 µM
[26] = second compound 0.316 µM, first compound 0.1 µM
[27] = second compound 0.316 µM, first compound 0.316 µM
[28] = second compound 0.316 µM, first compound 1 µM
[29] = second compound 0.316 µM, first compound 3.16 µM
[30] = second compound 0.316 µM, first compound 10 µM
[31] = second compound 1 µM, first compound 0.0316 µM
[32] = second compound 1 µM, first compound 0.1 µM
[33] = second compound 1 µM, first compound 0.316 µM
[34] = second compound 1 µM, first compound 1 µM
[35] = second compound 1 µM, first compound 3.16 µM
[36] = second compound 1 µM, first compound 10 µM
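Note: viability read 7 days after compound addition.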

## CC1(C)CCC(CN2CCN(c3ccc(C(=O)NS(=O)(=O)c4ccc(NCC5CCOCC5)c([N+](=O)[O-])c4)c(Oc4cnc5[nH]ccc5c4)c3)CC2)=C(c2ccc(Cl)cc2)C1 + COc1c(OCCCN2CCOCC2)ccc2c3n(c(=NC(=O)c4cnc(N)nc4)nc12)CCN3
Second compound 0.00316 µM
  IC50: > 10000 nM
Second compound 0.01 µM
  IC50: > 10000 nM
Second compound 0.0316 µM
  IC50: > 10000 nM
Second compound 0.1 µM
  IC50: 7490 nM
Second compound 0.316 µM
  IC50: 2360 nM
Second compound 1 µM
  IC50: < 31.6 nM
[1]
  viability, T/C: 105%
[2]
  viability, T/C: 99.5%
[3]
  viability, T/C: 99%
[4]
  viability, T/C: 102%
[5]
  viability, T/C: 99.7%
[6]
  viability, T/C: 80.8%
[7]
  viability, T/C: 104%
[8]
  viability, T/C: 104%
[9]
  viability, T/C: 97.6%
[10]
  viability, T/C: 91.7%
[11]
  viability, T/C: 96.5%
[12]
  viability, T/C: 71.1%
[13]
  viability, T/C: 92.4%
[14]
  viability, T/C: 89.8%
[15]
  viability, T/C: 92.8%
[16]
  viability, T/C: 86.4%
[17]
  viability, T/C: 87.3%
[18]
  viability, T/C: 68.2%
[19]
  viability, T/C: 74.9%
[20]
  viability, T/C: 74.8%
[21]
  viability, T/C: 71.2%
[22]
  viability, T/C: 65.1%
[23]
  viability, T/C: 59.5%
[24]
  viability, T/C: 46.8%
[25]
  viability, T/C: 53.5%
[26]
  viability, T/C: 50.3%
[27]
  viability, T/C: 49.2%
[28]
  viability, T/C: 51.7%
[29]
  viability, T/C: 49.6%
[30]
  viability, T/C: 31.3%
[31]
  viability, T/C: 37.5%
[32]
  viability, T/C: 32.5%
[33]
  viability, T/C: 35.8%
[34]
  viability, T/C: 36.1%
[35]
  viability, T/C: 33.7%
[36]
  viability, T/C: 33.3%

## C[C@@H](NC(=O)c1ncnc(N)c1Cl)c1ncc(C(=O)Nc2cc(C(F)(F)F)c(Cl)cn2)s1 + COc1c(OCCCN2CCOCC2)ccc2c3n(c(=NC(=O)c4cnc(N)nc4)nc12)CCN3
Second compound 0.00316 µM
  IC50: > 10000 nM
Second compound 0.01 µM
  IC50: > 10000 nM
Second compound 0.0316 µM
  IC50: > 10000 nM
Second compound 0.1 µM
  IC50: 4050 nM
Second compound 0.316 µM
  IC50: 1320 nM
Second compound 1 µM
  IC50: < 31.6 nM
[1]
  viability, T/C: 109%
[2]
  viability, T/C: 117%
[3]
  viability, T/C: 106%
[4]
  viability, T/C: 111%
[5]
  viability, T/C: 105%
[6]
  viability, T/C: 76%
[7]
  viability, T/C: 108%
[8]
  viability, T/C: 102%
[9]
  viability, T/C: 104%
[10]
  viability, T/C: 115%
[11]
  viability, T/C: 96.5%
[12]
  viability, T/C: 74.2%
[13]
  viability, T/C: 95.3%
[14]
  viability, T/C: 94.4%
[15]
  viability, T/C: 94.7%
[16]
  viability, T/C: 92.1%
[17]
  viability, T/C: 76.6%
[18]
  viability, T/C: 51%
[19]
  viability, T/C: 86.5%
[20]
  viability, T/C: 75.8%
[21]
  viability, T/C: 76.6%
[22]
  viability, T/C: 65%
[23]
  viability, T/C: 57.2%
[24]
  viability, T/C: 33.7%
[25]
  viability, T/C: 58.9%
[26]
  viability, T/C: 58.8%
[27]
  viability, T/C: 59.4%
[28]
  viability, T/C: 51.4%
[29]
  viability, T/C: 41.8%
[30]
  viability, T/C: 25.1%
[31]
  viability, T/C: 45.4%
[32]
  viability, T/C: 41%
[33]
  viability, T/C: 42.6%
[34]
  viability, T/C: 35.2%
[35]
  viability, T/C: 32.1%
[36]
  viability, T/C: 18.5%

## Cn1ncnc1[C@H]1c2n[nH]c(=O)c3cc(F)cc(c23)N[C@@H]1c1ccc(F)cc1 + COc1c(OCCCN2CCOCC2)ccc2c3n(c(=NC(=O)c4cnc(N)nc4)nc12)CCN3
Second compound 0.00316 µM
  IC50: > 100 nM
Second compound 0.01 µM
  IC50: > 100 nM
Second compound 0.0316 µM
  IC50: > 100 nM
Second compound 0.1 µM
  IC50: > 100 nM
Second compound 0.316 µM
  IC50: 1.13 nM
Second compound 1 µM
  IC50: < 0.316 nM
Second compound 0.00316 µM, first compound 0.000316 µM
  viability, T/C: 103%
Second compound 0.00316 µM, first compound 0.001 µM
  viability, T/C: 107%
Second compound 0.00316 µM, first compound 0.00316 µM
  viability, T/C: 107%
Second compound 0.00316 µM, first compound 0.01 µM
  viability, T/C: 98.7%
[1]
  viability, T/C: 106%
[2]
  viability, T/C: 93.9%
Second compound 0.01 µM, first compound 0.000316 µM
  viability, T/C: 103%
Second compound 0.01 µM, first compound 0.001 µM
  viability, T/C: 97.9%
Second compound 0.01 µM, first compound 0.00316 µM
  viability, T/C: 94.2%
Second compound 0.01 µM, first compound 0.01 µM
  viability, T/C: 89.2%
[7]
  viability, T/C: 93%
[8]
  viability, T/C: 91.3%
Second compound 0.0316 µM, first compound 0.000316 µM
  viability, T/C: 85.2%
Second compound 0.0316 µM, first compound 0.001 µM
  viability, T/C: 88.9%
Second compound 0.0316 µM, first compound 0.00316 µM
  viability, T/C: 82.1%
Second compound 0.0316 µM, first compound 0.01 µM
  viability, T/C: 83%
[13]
  viability, T/C: 81.8%
[14]
  viability, T/C: 79%
Second compound 0.1 µM, first compound 0.000316 µM
  viability, T/C: 70.2%
Second compound 0.1 µM, first compound 0.001 µM
  viability, T/C: 68.5%
Second compound 0.1 µM, first compound 0.00316 µM
  viability, T/C: 70.7%
Second compound 0.1 µM, first compound 0.01 µM
  viability, T/C: 66%
[19]
  viability, T/C: 69%
[20]
  viability, T/C: 61.3%
Second compound 0.316 µM, first compound 0.000316 µM
  viability, T/C: 54.3%
Second compound 0.316 µM, first compound 0.001 µM
  viability, T/C: 52.5%
Second compound 0.316 µM, first compound 0.00316 µM
  viability, T/C: 46.1%
Second compound 0.316 µM, first compound 0.01 µM
  viability, T/C: 43.4%
[25]
  viability, T/C: 46.4%
[26]
  viability, T/C: 43.4%
Second compound 1 µM, first compound 0.000316 µM
  viability, T/C: 33.3%
Second compound 1 µM, first compound 0.001 µM
  viability, T/C: 34.1%
Second compound 1 µM, first compound 0.00316 µM
  viability, T/C: 30.9%
Second compound 1 µM, first compound 0.01 µM
  viability, T/C: 34.4%
[31]
  viability, T/C: 36.6%
[32]
  viability, T/C: 30.3%
